Article PMC8066331, “Anticancer Activity of Triazolo-Thiadiazole Derivatives and Inhibition of AKT1 and AKT2 Activation” (Pharmaceutics, 2021)

Experiments:
Akt1 phosphorylation = test: Detection of Akt1 phosphorylation by intracellular flow cytometry; type: cell-based, human; conditions: for decrease of Akt1 phospho-form: HT-29 cells; for phosphorylation of Akt1: GI50 and TGI concentrations
Procedure: (§1) To investigate whether KA25 and KA39 triazolo[3,4-b]thiadiazole derivatives inhibit the phosphorylation of Akt1 and Akt2 isoforms, three colorectal cancer cell lines including HT-29, LoVo, and SW403 were intracellularly stained upon treatment with the two referred compounds. Firstly, cells were seeded into a 6-well plate at a density of 7 × 10^5 cells/well and maintained at 37 °C in a […]. After 24 h of cell growth, the culture medium was discarded and replaced with 2 mL of fresh medium. […] The required GI50 and TGI concentrations (μΜ) of the KA25 and KA39 derivatives in HT-29 and LoVo cells have been determined in previous studies. To estimate the TGI concentration (μΜ) of the KA25 compound in SW403 cells, further MTT assays were carried out as previously described. Following drug exposure at the mentioned treatment conditions, the cells were collected after being washed with ice-cold PBS (pH = 7.4) and detached enzymatically with standard trypsinization. Two centrifugations were followed at 1500 rpm for 5 min, including two washing steps with 2 mL of cell staining buffer (BioLegend, San Diego, CA, USA). Cell pellets were fixed with 500 μL of pre-warmed fixation buffer (BioLegend, San Diego, CA, USA) and incubated at 37 °C for 15 min. Afterwards, one centrifugation was carried out at 1000 rpm for 5 min, followed by supernatant discard and resuspension of cell pellet through vortex. Then, the cells were washed with 2 mL of cell staining buffer twice, including two centrifugations at 1000 rpm for 5 min at room temperature. After the cell pellet was resuspended with gentle pipetting, cells were permeabilized by adding 1000 μL of pre-chilled True-Phos Permeabilization buffer (BioLegend, San Diego, CA, USA) while vortexing. Following overnight incubation at −20 °C, the cells were centrifuged at 2000 rpm for 5 min and the supernatant was discarded. After the cell pellet was resuspended by vortexing, two centrifugations were performed at 2000 rpm for 5 min including two washes with 2 mL of cell staining buffer. The cell pellet was resuspended with 200 μL of cell staining buffer, and equal volumes were transferred into the appropriate tubes. To detect total Akt1 and Akt2, 2 μL of purified anti-Akt1 and anti-Akt2 (BioLegend, San Diego, CA, USA) was added, respectively. Additionally, 2 μL of purified anti-Akt phospho(Ser473) (BioLegend, San Diego, CA, USA) was added for the detection of either phosphorylated AKT1 or AKT2. Furthermore, a cocktail of isotype controls (5 μL of purified mouse IgG1, 5 μL of purified mouse IgG2b, and 1 μL of purified rabbit polyclonal isotype control antibody) was used to differentiate nonspecific background signals from specific antibody signals. The cells were incubated for 30 min at room temperature in the dark and then stained with 5 μL of phycoerythrin (PE) donkey anti-rabbit IgG and 2 μL of Alexa Fluor 488 Goat anti mouse IgG (BioLegend, San Diego, CA, USA). After 15 min of incubation in the dark, the cells were resuspended with 1000 μL of cell staining buffer and analyzed in the flow cytometer (CyFlow®, SL, Partec, GmbH, Muenster, Germany). Flow cytometric analysis was carried out in triplicate and performed by Partec Flomax software.
(§2) The inhibitory impact of the two triazolo[3,4-b]thiadiazole derivatives KA25 and KA39 on the phosphorylation of either Akt1 (p-Akt1) or Akt2 (p-Akt2) was determined by the following formulas: p-Akt1(%) or p-Akt2 (%) = [(mean-xtreated − isotypetreated)]/[(mean-xuntreated − isotypeuntreated)] × 100, where the isotype value is subtracted from the mean-x value of the corresponding condition, including treated and untreated cells. As the formulas indicate, the difference in value of treated cells is divided by the difference in value of untreated cells (control group) to estimate the extent of inhibition. […]

Akt2 phosphorylation = test: Detection of Akt2 phosphorylation by intracellular flow cytometry; type: cell-based, human; conditions: for decrease of Akt2 phospho-form: HT-29 cells; for phosphorylation of Akt2: GI50 and TGI concentrations
Procedure: as §1, §2

[1] = GI50 concentration (KA39 11.5 μΜ, KA25 1 μΜ), 3 h
[2] = GI50 concentration (KA39 11.5 μΜ, KA25 1 μΜ), 24 h
[3] = TGI concentration (KA39 15.9 μΜ, KA25 120 μΜ), 3 h
[4] = TGI concentration (KA39 15.9 μΜ, KA25 120 μΜ), 24 h
[5] = LoVo cells, 3 and 24 h (Figure S47)
[6] = SW403 cells, 3 and 24 h (Figure S48)

Compound	decrease of Akt1 phospho-form (Akt1 phosphorylation; [1]) [%]	decrease of Akt1 phospho-form (Akt1 phosphorylation; [2]) [%]	decrease of Akt1 phospho-form (Akt1 phosphorylation; [3]) [%]	decrease of Akt1 phospho-form (Akt1 phosphorylation; [4]) [%]	phosphorylation of Akt1 (Akt1 phosphorylation; [5])	phosphorylation of Akt1 (Akt1 phosphorylation; [6])	decrease of Akt2 phospho-form (Akt2 phosphorylation; [1]) [%]	decrease of Akt2 phospho-form (Akt2 phosphorylation; [2]) [%]	decrease of Akt2 phospho-form (Akt2 phosphorylation; [3]) [%]	decrease of Akt2 phospho-form (Akt2 phosphorylation; [4]) [%]	phosphorylation of Akt2 (Akt2 phosphorylation; [5])	phosphorylation of Akt2 (Akt2 phosphorylation; [6])
COc1cc(Cc2nnc3sc(C=Cc4ccc(F)cc4)nn23)c(S(=O)(=O)N(C)C)cc1OC [KA25]	83.38	79.8	86.45	87.73	significantly inhibited	significantly inhibited	73.74	76.9	82.6	86.4	significantly inhibited	significantly inhibited
COc1cc(Cc2nnc3sc(-c4cc([N+](=O)[O-])ccc4[N+](=O)[O-])nn23)c(S(=O)(=O)N(C)C)cc1OC [KA39]	73.66	75.71	72.9	88.5	significantly inhibited	significantly inhibited	60.76	83.55	58.87	86	significantly inhibited	significantly inhibited
